# From patent US20220127297A1, “Novel Antibacterial 3"-Derivatives Of 4,6-Disubstituted 2,5-Dideoxystreptamine Aminoglycoside Antibiotics” (AGILeBiotics B.V., priority 2018, published 2022)
# What was measured:
# Assay in all cases: MIC determination at Fidelta, clinical isolates
# Format in all cases: cell-based
# [1] = tested on: clinical isolates of multidrug-resistant Pseudomonas aeruginosa (and ATCC27853)
# Summary of the method: (§1)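 Clinical isolates and ATCC reference strains revived on MH agar, tested by broth microdilution in Mueller Hinton broth. Compounds from 5 mg/mL DMSO stocks, two-fold serial dilutions, final 64-0.125 μg/mL.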
# [2] = tested on: clinical isolates of multidrug-resistant Acinetobacter baumannii (and ATCC17978)
# Summary of the method: as §1
# [3] = tested on: clinical isolates of Vancomycin-resistant Enterococcus faecium (VRE)
# Summary of the method: as §1
# [4] = tested on: clinical isolates of methicillin-resistant Staphylococcus aureus (MRSA)
# Summary of the method: as §1
# [5] = AB-2017, Bronchial aspirate/CRAB
# [6] = AB-2019, Bronchial aspirate/CRAB
structure (smiles),measurement,setting,value
"N=C(NCCN)NC1C(O)[C@@H](CO)OC(OC2C(F)[C@H](O[C@H]3OC(CN)[C@@H](O)CC3N)C(N)C[C@H]2NC(=O)[C@@H](O)CCN)[C@@H]1O (some centres unmarked) [ABX5020, Tobra-AHB-F-Gua-2-amino-ethyl]",MIC90,[1]; P. aeruginosa ATCC27853 strain,0.25 µg/mL
same,MIC90,"[1]; PA-1948, Wound/OXA-2",1 µg/mL
same,MIC90,"[1]; PA-1949, Urine/OXA-2",8 µg/mL
same,MIC90,"[1]; PA-1950, Sputum/OXA-2",1 µg/mL
same,MIC90,"[1]; PA-1952, Wound/OXA-2",8 µg/mL
same,MIC90,"[1]; PA-1953, Urine/MDR",16 µg/mL
same,MIC90,"[1]; PA-1954, Sputum/OXA-2",0.5 µg/mL
same,MIC90,[2]; A. baumannii ATCC17978 strain,0.5 µg/mL
same,MIC90,"[2]; AB-1931, Urine/CRAB",1 µg/mL
same,MIC90,"[2]; AB-1932, Urine (catheter)/CRAB",1 µg/mL
same,MIC90,[2]; [5],1 µg/mL
same,MIC90,"[2]; AB-2018, Skin/CRAB",2 µg/mL
same,MIC90,[2]; [6],2 µg/mL
"N=C(N)NC1C(O)[C@@H](CO)OC(OC2C(F)[C@H](O[C@H]3OC(CN)[C@@H](O)CC3N)C(N)C[C@H]2NC(=O)[C@@H](O)CCN)[C@@H]1O (some centres unmarked) [ABX5006, Tobra-AHB-F-Gua]",MIC90,[1]; P. aeruginosa ATCC27853 strain,0.25 µg/mL
same,MIC90,"[1]; PA-1948, Wound/OXA-2",0.5 µg/mL
same,MIC90,"[1]; PA-1949, Urine/OXA-2",8 µg/mL
same,MIC90,"[1]; PA-1950, Sputum/OXA-2",1 µg/mL
same,MIC90,"[1]; PA-1952, Wound/OXA-2",4 µg/mL
same,MIC90,"[1]; PA-1953, Urine/MDR",8 µg/mL
same,MIC90,"[1]; PA-1954, Sputum/OXA-2",0.5 µg/mL
same,MIC90,"[1]; PA-1967, Blood/VIM",4 µg/mL
same,MIC90,"[3]; VRE-2005, Urine",4 µg/mL
same,MIC90,"[3]; VRE-2006, Urine",32 µg/mL
same,MIC90,"[3]; VRE-2007, Urine",4 µg/mL
same,MIC90,"[3]; VRE-2008, Urine",8 µg/mL
same,MIC90,"[3]; VRE-2009, Urine",16 µg/mL
same,MIC90,"[3]; VRE-2010, Urine",8 µg/mL
same,MIC90,"[3]; VRE-2011, Rectum",16 µg/mL
same,MIC90,"[3]; VRE-2012, Rectum",4 µg/mL
same,MIC90,"[3]; VRE-2013, Rectum",4 µg/mL
same,MIC90,"[4]; MRSA-1995, Liquor",0.5 µg/mL
same,MIC90,"[4]; MRSA-1998, Wound",0.25 µg/mL
same,MIC90,"[4]; MRSA-1999, Skin",0.5 µg/mL
same,MIC90,"[4]; MRSA-2003, Wound",0.5 µg/mL
same,MIC90,[2]; A. baumannii ATCC17978 strain,<0.125 µg/mL
same,MIC90,"[2]; AB-1931, Urine/CRAB",0.5 µg/mL
same,MIC90,"[2]; AB-1932, Urine (catheter)/CRAB",1 µg/mL
same,MIC90,"[2]; AB-1964, Blood",1 µg/mL
same,MIC90,[2]; [5],0.5 µg/mL
same,MIC90,"[2]; AB-2018, Skin/CRAB",1 µg/mL
same,MIC90,[2]; [6],1 µg/mL
same,MIC90,"[2]; AB-2025, Skin",0.5 µg/mL
same,MIC90,"[2]; AB-2026, Skin",1 µg/mL
"N=C(NC[C@@H]1CCNC1)NC1[C@@H](O)C(OC2[C@@H](F)[C@H](O[C@H]3OC(CN)[C@@H](O)CC3N)C(N)C[C@H]2NC(=O)[C@@H](O)CCN)O[C@H](CO)[C@H]1O (stereo partly drawn) [ABX5039, Tobra-AHB-F-Gua (R) pyrrolidine-3-ylmethyl]",MIC90,[1]; P. aeruginosa ATCC27853 strain,0.5 µg/mL
same,MIC90,"[1]; PA-1948, Wound/OXA-2",1 µg/mL
same,MIC90,"[1]; PA-1949, Urine/OXA-2",8 µg/mL
same,MIC90,"[1]; PA-1950, Sputum/OXA-2",1 µg/mL
same,MIC90,"[1]; PA-1952, Wound/OXA-2",4 µg/mL
same,MIC90,"[1]; PA-1953, Urine/MDR",32 µg/mL
same,MIC90,"[1]; PA-1954, Sputum/OXA-2",1 µg/mL
same,MIC90,"[1]; PA-1967, Blood/VIM",4 µg/mL
same,MIC90,"[3]; VRE-2005, Urine",4 µg/mL
same,MIC90,"[3]; VRE-2006, Urine",16 µg/mL
same,MIC90,"[3]; VRE-2007, Urine",4 µg/mL
same,MIC90,"[3]; VRE-2008, Urine",4 µg/mL
same,MIC90,"[3]; VRE-2009, Urine",4 µg/mL
same,MIC90,"[3]; VRE-2010, Urine",8 µg/mL
same,MIC90,"[3]; VRE-2011, Rectum",8 µg/mL
same,MIC90,"[3]; VRE-2012, Rectum",4 µg/mL
same,MIC90,"[3]; VRE-2013, Rectum",4 µg/mL
same,MIC90,"[4]; MRSA-1995, Liquor",0.5 µg/mL
same,MIC90,"[4]; MRSA-1998, Wound",0.25 µg/mL
same,MIC90,"[4]; MRSA-1999, Skin",0.25 µg/mL
same,MIC90,"[4]; MRSA-2003, Wound",0.5 µg/mL
same,MIC90,[2]; A. baumannii ATCC17978 strain,0.5 µg/mL
same,MIC90,"[2]; AB-1931, Urine/CRAB",1 µg/mL
same,MIC90,"[2]; AB-1932, Urine (catheter)/CRAB",1 µg/mL
same,MIC90,"[2]; AB-1964, Blood",1 µg/mL
same,MIC90,[2]; [5],1 µg/mL
same,MIC90,"[2]; AB-2018, Skin/CRAB",1 µg/mL
same,MIC90,[2]; [6],1 µg/mL
same,MIC90,"[2]; AB-2025, Skin",1 µg/mL
same,MIC90,"[2]; AB-2026, Skin",2 µg/mL
"N=C(NC[C@@H]1CCCN1)NC1[C@@H](O)C(OC2[C@@H](F)[C@H](O[C@H]3OC(CN)[C@@H](O)CC3N)C(N)C[C@H]2NC(=O)[C@@H](O)CCN)O[C@H](CO)[C@H]1O (stereo partly drawn) [ABX5026, Tobra-AHB-F-Gua (S) pyrrolidine-2-yl-methyl]",MIC90,[1]; P. aeruginosa ATCC27853 strain,1 µg/mL
same,MIC90,"[1]; PA-1948, Wound/OXA-2",1 µg/mL
same,MIC90,"[1]; PA-1949, Urine/OXA-2",16 µg/mL
same,MIC90,"[1]; PA-1950, Sputum/OXA-2",1 µg/mL
same,MIC90,"[1]; PA-1952, Wound/OXA-2",8 µg/mL
same,MIC90,"[1]; PA-1953, Urine/MDR",32 µg/mL
same,MIC90,"[1]; PA-1954, Sputum/OXA-2",1 µg/mL
same,MIC90,"[1]; PA-1967, Blood/VIM",8 µg/mL
same,MIC90,"[3]; VRE-2005, Urine",4 µg/mL
same,MIC90,"[3]; VRE-2006, Urine",8 µg/mL
same,MIC90,"[3]; VRE-2007, Urine",4 µg/mL
same,MIC90,"[3]; VRE-2008, Urine",4 µg/mL
same,MIC90,"[3]; VRE-2009, Urine",8 µg/mL
same,MIC90,"[3]; VRE-2010, Urine",8 µg/mL
same,MIC90,"[3]; VRE-2011, Rectum",8 µg/mL
same,MIC90,"[3]; VRE-2012, Rectum",4 µg/mL
same,MIC90,"[3]; VRE-2013, Rectum",4 µg/mL
same,MIC90,"[4]; MRSA-1995, Liquor",0.5 µg/mL
same,MIC90,"[4]; MRSA-1998, Wound",0.25 µg/mL
same,MIC90,"[4]; MRSA-1999, Skin",0.5 µg/mL
same,MIC90,"[4]; MRSA-2003, Wound",0.5 µg/mL
same,MIC90,[2]; A. baumannii ATCC17978 strain,0.5 µg/mL
same,MIC90,"[2]; AB-1931, Urine/CRAB",1 µg/mL
same,MIC90,"[2]; AB-1932, Urine (catheter)/CRAB",1 µg/mL
same,MIC90,"[2]; AB-1964, Blood",2 µg/mL
same,MIC90,[2]; [5],1 µg/mL
same,MIC90,"[2]; AB-2018, Skin/CRAB",1 µg/mL
same,MIC90,[2]; [6],1 µg/mL
same,MIC90,"[2]; AB-2025, Skin",1 µg/mL
same,MIC90,"[2]; AB-2026, Skin",2 µg/mL
"NCC[C@H](O)C(=O)N[C@@H]1C[C@H](N)[C@@H](O[C@H]2O[C@H](CN)[C@@H](O)[C@H](O)[C@H]2O)[C@H](O)[C@H]1O[C@H]1O[C@H](CO)[C@@H](O)[C@H](N)[C@H]1O [Amikacin, amikacin, reference compound]",MIC90,"[3]; VRE-2005, Urine",> 64 µg/mL
same,MIC90,"[3]; VRE-2006, Urine",> 64 µg/mL
same,MIC90,"[3]; VRE-2007, Urine",> 64 µg/mL
same,MIC90,"[3]; VRE-2008, Urine",> 54 µg/mL
same,MIC90,"[3]; VRE-2009, Urine",> 64 µg/mL
same,MIC90,"[3]; VRE-2010, Urine",> 64 µg/mL
same,MIC90,"[3]; VRE-2011, Rectum",> 64 µg/mL
same,MIC90,"[3]; VRE-2012, Rectum",> 64 µg/mL
same,MIC90,"[3]; VRE-2013, Rectum",> 64 µg/mL
same,MIC90,"[4]; MRSA-1995, Liquor",4 µg/mL
same,MIC90,"[4]; MRSA-1998, Wound",4 µg/mL
same,MIC90,"[4]; MRSA-1999, Skin",8 µg/mL
same,MIC90,"[4]; MRSA-2003, Wound",4 µg/mL
